Laboratory results reported in US6054484A, “Transparent aqueous solution of diclofenac sodium and medicinal compositions with the use of the same” (Tsumura & Co., priority 1996, dated 2000).

Experiments:
[1] = cited from earlier work
[2] = Solubility of drug substance in water, oil ingredients and fatty acid diethanolamide; format: physicochemical

| Compound | solubility in water (in words) [1] | dissolution in coconut fatty acid diethanolamide ([2]; coconut fatty acid diethanolamide alone) | solubility in oil ingredients ([2]; in oil ingredients) | dissolution in liquid mixture of coconut fatty acid diethanolamide with water ([2]; liquid mixture with water) | solubility in water [1] |
| --- | --- | --- | --- | --- | --- |
| COc1ccc2c(c1)c(CC(=O)O)c(C)n2C(=O)c1ccc(Cl)cc1 [indomethacin] | insoluble in water | – | – | – | – |
| O=C(O)Cc1ccccc1Nc1c(Cl)cccc1Cl [diclofenac sodium] | – | does not dissolve | low solubility | at a high concentration and stably | about 1.5 wt. % |
